From patent publication US20170266266A1, “Functions of 55 Newfound Proteins and Their Medicinal Application in the Treatment and Prevention of Disease” (priority 2012, published 2017)

Experiments:
[1] = test system: adjuvant-induced arthritis; test: Adjuvant-Induced Arthritis (AIA) in Lewis rats; conditions: 35 days and 45 days treatment sections
[2] = test system: HBV; test: Efficacy of AFOD RAAS 105 in the HBV mouse hydrodynamic injection model; format: in vivo, BALB/c mice
Protocol: From day −7 to day 0, mice in groups 6-7 are administrated IP/IV by turn with test article daily for 8 days according to Table 3.
On day 0, mice from group 1 to group 7 are hydrodynamically injected through tail vein with pcDNA3.1/HBV plasmid DNA in a volume of normal saline equal to 8% of a mouse body weight within 5 seconds. The plasmid DNA solution for injections is prepared before injection.
From day 0 to day 4, mice in groups 3-5 are administrated IP/IV by turn with test article daily for 5 days according to Table 2. From day 0 to day 4, mice in groups 1 and 2 are administrated PO with vehicle or ETV daily for 5 days according to Table 1. For groups 1-5, the first dosing is executed 4 hours post hydrodynamic injection. For groups 6-7, the last dosing is executed 4 hours pre hydrodynamic injection.
Mice from group 1 to group 7 are submandibularly bled for plasma preparation according to the design in Table 1. The blood samples will be collected in a tube containing heparin sodium and centrifuged at 7000×g and 4° C. for 10 min to obtain plasma samples.
On day 5, all mice in groups 1-7 are sacrificed and dissected to obtain livers (two pieces of left lobe, one piece of middle lobe and one piece of right lobe) according to the regimen in table 1. […]
Run qPCR for HBV DNA quantification. • a. […]
HBV DNA quantity=DNA determined by HBV primer-DNA determined by plasmid primer. […]

[3] = test system: HBV; test: Efficacy of RAAS-8 in the HBV mouse hydrodynamic injection model; format: in vivo, BALB/c mice
Protocol: 3.1 Hydrodynamic Injection and Compound Administration • 3.1.1. From day −7 to day 0, all 5 mice in group 4 were administrated i.p./i.v. with test article daily for 8 • days according to Table 2. • 3.1.2. On day 0, all groups of mice were hydrodynamicly injected via tail vein with pcDNA3.1/HBV plasmid DNA in a volume of normal saline equal to 8% of a mouse body weight. The plasmid DNA solution for injections was prepared one day before injection and then stored in 4E until injection. • 3.1.3. From day 0 to day 5, mice in groups 1-3 were weighed and treated with compounds or vehicle according to the regimen in Table 2. For groups 1 and 3, the first dosing was executed 4 hours pre HDI. For groups 2, the first dosing was executed 4 hours post HDI. For group 4, the last dosing was carried out 4 hours post HDI. • 3.1.4. All mice were submandibularly bled for plasma preparation according to the design in Table 1. • 3.1.5. All mice were sacrificed and dissected to obtain livers (two pieces of left lobe, one piece of middle lobe and one piece of right lobe) according to the regimen in table 1. Isolated livers were snap frozen in liquid nitrogen immediately upon collected.
3.2.1 Detect HBV DNA Replication Level in Plasma • 3.2.1.1 Isolate DNA from 50 μl plasma using QIAamp 96 DNA Blood Kit. DNA was eluted with 120 μl ddH2O. • 3.2.1.2. Run qPCR for HBV DNA quantification. • a) Dilute HBV plasmid standard by 10-fold from 10^7 copies/μl to 10 copies/μl. • b) Prepare qPCR mix as shown below.
To eliminate the influence of input HBV plasmid, primers and probe targeting HBV sequence which detect newly replicated HBV DNA and input HBV plasmid DNA and targeting pcDNA3.1 plasmid backbone sequence which only detect the input plasmid DNA were used to do real-time PCR, respectively.
HBV DNA quantity=DNA determined by HBV primer-DNA determined by plasmid primer.
Dilute the plasma 500 fold;
Detect HBsAg level in 50 μl diluted plasma by using HBsAg ELISA kit.
3.2.3.1 Liver DNA Isolation • a) Homogenize the liver tissue with Qiagen Tissue Lyser in 10 mM Tris.HCl, 10 mM EDTA, pH7.5. • b) Spin samples. Transfer the supernatant to a new tube containing equal volume of 2× proteinase K digestion buffer. Incubate at 50[…] for 3 hours. • c) Extract with phenol: chloroform: Isoamyl alcohol. • d) Transfer the upper phase to new tubes, add RNase A and incubate at 37° C. for 30 min. • e) Extract with phenol: chloroform: Isoamyl alcohol. • f) Transfer the upper phase to new microfuge tubes, add 0.7-1 volume of isopropanol, add GlycoBlue Coprecipitant to 50 μg/mL, incubate at −20[…] for 30 min. • g) Centrifuge (12000 g, 10 min) to precipitate DNA. • h) Wash the precipitate with 70% ethanol. Dissolve it in 25 μl ddH2O. Store DNA at −20[…] until use.
The total liver DNA was diluted to 10 ng/μl. […]

Row | Compound | body weight vs saline group [1] | HBV replication in livers by real-time PCR ([2]; day 5) | HBsAg generation ([2]; oral 0.1 mg/kg, day 3) | ssDNA in liver by southern blot ([3]; RASS 8 prophylactic treatment or ETV treatment) | HBV intermediate DNA in liver by real-time PCR ([3]; day 5) | HBsAg level in plasma ([3]; therapeutic treatment, within 5 days post HDI) | inhibition to HBV replication (plasma HBV DNA) ([3]; therapeutically-treated, day 3 post HDI to end)
1 | C[C@@H]1C[C@H]2[C@@H]3CCC4=CC(=O)C=C[C@]4(C)[C@@]3(F)[C@@H](O)C[C@]2(C)[C@@]1(O)C(=O)CO [Dex, Dexamethasone] | reduction of body weight |  |  |  |  |  | 
2 | C=C1[C@H](CO)[C@@H](O)C[C@@H]1n1cnc2c(=O)[nH]c(N)nc21 [entecavir, Entecavir, reference compound] |  | significantly inhibited HBV replication in livers | significant increase | decreased dramatically | significantly decreased | didn't have significant inhibition | significant inhibition
